Data as given in patent US20160015730A1, “Treatment of Pulmonary Hypertension with Carbonic Anhydrase Inhibitors” (priority 2007, published 2016).

Key:
[1] = system: patients exhibiting similar symptoms with respect to pulmonary hypertension; experiment: Examples 12-17: procedures of Examples 2 through 5 repeated with zonisamide or acetazolamide substituted for topiramate; assay type: in vivo, human
[2] = system: patient exhibiting similar symptoms with respect to pulmonary hypertension; experiment: Examples 6-11: procedure of Example 1 repeated with zonisamide or acetazolamide substituted for topiramate; assay type: in vivo, human
[3] = system: patient with pulmonary hypertension; experiment: Example 2 case report: patient with pulmonary hypertension treated with phentermine and topiramate; assay type: in vivo, human; settings: topiramate 200 mg daily with phentermine 15 mg daily
Method: The second patient was a person with obesity, hypothyroidism, hypertension, valvular heart disease, elevated cholesterol and depression. Their medications were levothyroxine 50 mcg daily, metoprolol 50 mg daily, venlafaxine 37.5 mg daily, progesterone 100 mg daily, esterified estrogens 1.25 mg daily, and methyltestosterone 2.5 mg daily. They were 63″ tall, weight 178 lbs, BMI 32, initial BP 120/78. They had trace edema of both ankles and a systolic murmur of I/VI along the left sternal border. […] A comment on the report stated that this was a slight increase in pulmonary pressure compared with an echocardiogram taken seven months earlier.
They were treated with phentermine 15 mg daily and topiramate 200 mg daily along with a low fat, low carbohydrate diet and exercise. Metoprolol was discontinued after four months due to low blood pressure. Eight months after treatment started, their weight was 165 lbs, BP was 122/76, and they had no edema. […] No MR was seen.

[4] = system: patient with known pulmonary hypertension; experiment: Example 4 case report: patient with known pulmonary hypertension and sleep apnea treated with bupropion, topiramate and phentermine; assay type: in vivo, human; settings: topiramate 100 mg daily with bupropion 300 mg
Method: The fourth patient was a person with obesity, sleep apnea on CPAP, known pulmonary hypertension with PA pressure estimated at 76 mm Hg by echocardiogram, valvular heart disease (mild-moderate tricuspid and mitral regurgitation), depression and hypertension. They smoked just under half pack of cigarettes per day and was a CO2 retainer by ABG's with a PCO2 of 54 mm Hg on room air. They were short of breath with minimal exertion. Their baseline medications were furosemide 80 mg daily, potassium chloride 20 mEq daily, lisinopril 10 mg daily, carvedilol 25 mg BID, escitalopram 10 mg daily, alprazolam 0.5 mg TID, and nightly oxygen. They were 68″ tall, weight 284 lbs, BMI 43½, initial BP 122/76. They had 1+ edema of both lower legs and was short of breath on exertion.
They were treated with aspirin 81 mg coated daily, bupropion 300 mg daily, topiramate 100 mg daily, phentermine 5 mg daily, along with a low fat, low carbohydrate diet and light exercise. By the first 4 weeks of follow-up, they had lost 17 lbs and was breathing much better. […] They were still smoking cigarettes occasionally. They had lost 38 lbs. Their blood pressure was 110/70 on only lisinopril 10 mg daily. Furosemide and carvedilol had been gradually discontinued due to improved edema, blood pressure, and breathing. An echocardiogram performed at three months into the program was mostly unchanged from their prior echocardiogram except that the pulmonary artery pressure was reported as normal. This change was consistent with their clinical picture.

[5] = system: patients with pulmonary hypertension; experiment: Summary of the five patients of Examples 1-5; assay type: in vivo, human
Source text: However, the improvement in pulmonary pressures appeared to be independent of weight loss in these patients.

[6] = system: patient with elevated pulmonary artery pressure (pulmonary hypertension); experiment: Example 1 case report: patient with mildly elevated pulmonary artery pressure treated with bupropion and topiramate; assay type: in vivo, human
Method: They were 66″ tall, weight 282 lbs, BMI 46, initial BP 118/80. They had 2+ edema of both ankles, clear lungs, and a systolic murmur along the left sternal border, grade II/VI.
They were started on atorvastatin 10 mg daily as well as bupropion 150 mg daily and topiramate 200 mg daily along with a low fat, low carbohydrate diet and exercise. […] They lost weight continuously on the program and 4 months later had lost 20 lbs. […] After six months, the patient temporarily discontinued the medications. Within a few days, even though their weight was the same, their chest pressure and shortness of breath on exertion returned. On resumption of the treatment, the symptoms resolved within a few days.

[7] = system: patient with pulmonary hypertension; experiment: Example 5 case report: patient with COPD and pulmonary hypertension treated with phentermine and topiramate; assay type: in vivo, human; settings: topiramate 100 mg daily with phentermine 15 mg daily
Method: The fifth patient was a person with obesity, diabetes, hypertension, hypothyroidism, elevated cholesterol, COPD, and pulmonary hypertension. […] They had stopped smoking 1PPD about 10 years previously. Their baseline medications were verapamil 240 mg daily, losartan-HCTZ 50-12.5 daily, levothyroxine 0.125 mg daily, Pulmicort […] 2 puffs twice daily, Foradil powder […] twice daily, metformin 500 mg twice daily, atorvastatin 10 mg daily, fluticasone nasal spray 50 mcg 2 puffs daily and vitamins. They were short of breath with minimal exertion. They were 67″ tall, weight 228 lbs, BMI 36, initial BP 138/70.
They were treated with phentermine 15 mg daily and topiramate 100 mg daily. Three years into treatment, their fasting glucose is 106 off metformin compared with 114 on metformin at baseline, their blood pressure is 115/60 on valsartan 80 mg daily and diltiazem CD 120 mg daily (changed from verapamil because of constipation). Their weight has been stable for six months in the low 180's.

[8] = system: patient with probable mild pulmonary hypertension; experiment: Example 3 case report: patient with probable mild pulmonary hypertension treated with phentermine and topiramate; assay type: in vivo, human
Method: The third patient was a person with obesity, hypertension, elevated cholesterol, heart murmur and dyspnea on exertion. Their medications were atorvastatin 10 mg daily, captopril 12.5 mg daily, trazodone 50 mg daily, spironolactone 50 mg daily, and bupropion 150 mg daily. They were 64″ tall, weight 319 lbs, BMI 55, initial BP 148/76.
They were treated with phentermine 15 mg daily and topiramate 200 mg daily along with a low fat, low carbohydrate diet and exercise. They were instructed to stop both the spironolactone and captopril since this weight loss treatment results in marked lowering of blood pressure in most patients. […] Blood pressure one week later was 140/86 and weight 317 lbs.

Type V phosphodiesterase = Type V phosphodiesterase (Homo sapiens, UniProt O76074); settings: comparison with avanafil (and sildenafil); cited from earlier work

With NS(=O)(=O)Cc1noc2ccccc12 [zonisamide] the “results relative to Examples 2 through 5” value ([1]; 25 mg, 50 mg, and 100 mg zonisamide substituted for topiramate) was “Substantially the same results”, the “results relative to Example 1” value ([2]; Example 6, 25 mg zonisamide substituted for the topiramate) was “Substantially the same results” and the “results relative to Example 1” value ([2]; Example 7, 50 mg zonisamide substituted for the topiramate) was “Substantially the same results”. For the same compound, the “results relative to Example 1” value ([2]; Example 8, 100 mg zonisamide substituted for the topiramate) was “Substantially the same results”.
In the case of CC1(C)O[C@@H]2[C@@H](CO[C@@]3(COS(N)(=O)=O)OC(C)(C)O[C@@H]23)O1 [topiramate], the weight ([3]; person, diet and exercise, eight months, baseline 178 lbs) is reported as 165 lbs, the edema ([3]; eight months, baseline trace edema of both ankles) is reported as “no edema” and the BP ([3]; eight months, metoprolol discontinued, baseline 120/78) is reported as 122/76. For the same compound, the “pulmonary artery pressure (echocardiogram)” value ([3]; nine months on treatment, baseline 39 mm Hg) was 33 mm Hg, the “mitral regurgitation (MR, echocardiogram)” value ([3]; nine months on treatment, baseline mild MR) was “No MR” and the “tricuspid regurgitation (echocardiogram)” value ([3]; nine months on treatment, baseline moderate TR) was “mild”. For the same compound, the weight lost ([4]; person, phentermine 5 mg, aspirin 81 mg daily, diet, light exercise, first 4 weeks, baseline 284 lbs) was 17 lbs, the blood pressure ([4]; phentermine 5 mg daily, four months, on only lisinopril 10 mg daily, baseline 122/76) was 110/70 and the “pulmonary artery pressure (echocardiogram)” value ([4]; phentermine 5 mg daily, three months, baseline estimated 76 mm Hg) was “normal”. For the same compound, the breathing ([4]; phentermine 5 mg, aspirin 81 mg daily, first 4 weeks) was “much better”, the weight lost ([4]; phentermine 5 mg, aspirin 81 mg daily, four months) was 38 lbs and the clinical status ([4]; phentermine 5 mg, aspirin 81 mg daily, four months, able to exercise normally without shortness of breath) was “clinically markedly improved”. For the same compound, the symptomatic improvement ([5]; all patients) was “symptomatic improvement in all patients”, the “improvement in pulmonary hypertension” value ([5]; topiramate with phentermine and/or bupropion, diet and weight loss program) was “surprising improvement” and the “chest pressure and shortness of breath on exertion after discontinuing the medications” value ([6]; medications temporarily discontinued after six months, within a few days, weight the same) was “returned”. For the same compound, the exercise tolerance ([6]; person, topiramate 200 mg daily with bupropion 150 mg daily, atorvastatin 10 mg daily, diet and exercise, two weeks after start) was “markedly improved”, the “symptoms on resumption of the treatment” value ([6]; resumption of topiramate 200 mg/bupropion 150 mg treatment, within a few days) was “resolved” and the “chest pressure and shortness of breath on exertion” value ([6]; topiramate 200 mg daily with bupropion 150 mg daily, atorvastatin 10 mg daily, two weeks after start) was “gone”. The weight lost ([6]; topiramate 200 mg daily with bupropion 150 mg daily, atorvastatin, diet and exercise, 4 months, baseline 282 lbs) was 20 lbs, the “pulmonary pressures (echocardiogram)” value ([6]; topiramate 200 mg daily with bupropion 150 mg daily, 2 weeks after start of treatment, baseline 36 mm Hg) was “normal” and the fasting glucose ([7]; person, three years, off metformin, baseline 114 on metformin) was 106. The “pulmonary pressures (echocardiogram)” value ([7]; 30 months into treatment, baseline 45-50 mm Hg) was “normal”, the symptoms ([7]; exercising more without shortness of breath) was “symptomatically much better” and the weight ([7]; three years, stable for six months, baseline 228 lbs) was “low 180's”. For the same compound, the blood pressure ([7]; three years, on valsartan 80 mg and diltiazem CD 120 mg daily, baseline 138/70) was 115/60, the “echocardiogram findings of pulmonary hypertension” value ([8]; person, topiramate 200 mg daily with phentermine 15 mg daily (bupropion 150 mg daily at baseline), three weeks, before significant weight loss, baseline probable mild pulmonary hypertension) was “no findings of pulmonary hypertension” and the weight ([8]; topiramate 200 mg daily with phentermine 15 mg daily, four weeks, baseline 319 lbs) was 317 lbs. For the same compound, the blood pressure ([8]; topiramate 200 mg daily with phentermine 15 mg daily, four weeks, spironolactone and captopril stopped, baseline 148/76) was 140/86.
For CC(=O)Nc1nnc(S(N)(=O)=O)s1 [acetazolamide], the “results relative to Examples 2 through 5” value ([1]; 100 mg, 250 mg, and 500 mg acetazolamide substituted for topiramate) was “Substantially the same results”, the “results relative to Example 1” value ([2]; Example 9, 100 mg acetazolamide substituted for the topiramate) was “Substantially the same results” and the “results relative to Example 1” value ([2]; Example 10, 250 mg acetazolamide substituted for the topiramate) was “Substantially the same results”. For the same compound, the “results relative to Example 1” value ([2]; Example 11, 500 mg acetazolamide substituted for the topiramate) was “Substantially the same results”.
For CCCc1nn(C)c2c(=O)[nH]c(-c3cc(S(=O)(=O)N4CCN(C)CC4)ccc3OCC)nc12 [sildenafil], the “potency as phosphodiesterase inhibitor relative to avanafil” value (Type V phosphodiesterase) is listed as “approximately twice as potent as avanafil”.
